Data published in patent US20130243928A1 (priority 2007, published 2013).

Assay: Distribution (dissolution) of resveratrol in an aliquot of wine with heating
Type: physicochemical
Conditions: heating up to about 40° C., no added alcohol or other solvent
Description: The size, temperature and heating time for a batch of resveratrol concentrate will vary depending on how much resveratrol is needed to be added. […] Temperature can be measured by placing a thermometer in the batch of wine and timing the process.

- amount of resveratrol that can be distributed in an aliquot of wine: about 1.25 (wt/vol)
Structure (SMILES): Oc1ccc(/C=C/c2cc(O)cc(O)c2)cc1 [resveratrol, trans-3,5,4′-trihydroxystilbene]
